Measured values from patent publication US9248163B2, “Insulin-like growth factor binding protein 7 for treatment of cancer” (University of Massachusetts, priority 2007, dated 2016).

Key:
[1] = system: human melanoma cell lines; test: Proliferation assay of human melanoma cell lines; format: cell-based; settings: 24 hours, 10 μg/ml
Experimental: For the proliferation assay shown in FIG. 1B, 1×10^4 cells stably expressing an shRNA were cultured in 12-well plate format, infected with BRAFV600E-expressing retrovirus and after 14 days stained with crystal violet. For all other quantitative proliferation assays, cell viability was measured by trypan blue exclusion test at the time point indicated in the relevant figure legend. Values were expressed as percent cell growth, as described in the relevant figure legend. For the proliferation assays shown in FIG. 2A, CM was replenished every 3 days, and proliferation was measured after a total of 14 days of CM treatment. Unless otherwise stated, rIGFBP7 was added to the culture medium at a concentration of 10 μg/ml.
Next, the ability of IGFBP7 to block cellular proliferation in a panel of human melanoma cell lines was analyzed. The cells contained either an activating BRAF mutation (BRAFV600E; SK-MEL-28, MALME-3M, WM793B, WM39 and WM278), an activating RAS mutation (RASQ61R; SK-MEL-2, SK-MEL-103, and WM1366), or were wild type for both BRAF and RAS (CHL, SK-MEL-31, WM1321 and WM3211). For each cell line, the presence of IGFBP7 in the CM was determined by immunoblot analysis (FIG. 3A), and sensitivity to IGFBP7-induced growth inhibition was measured in a proliferation assay (FIG. 3B). The results reveal a striking inverse correlation between IGFBP7 expression and sensitivity to IGFBP7-mediated growth inhibition that correlates with the status of BRAF or RAS.

[2] = system: primary melanocytes and SK-MEL-28 melanoma cells; test: Quantitative real-time RT-PCR of the identified genes after rIGFBP7 addition; format: cell-based, human
Experimental: Total RNA was isolated using TRIZOL™ (Invitrogen) 7 days after retroviral transduction and puromycin selection. Reverse transcription was performed using SuperScript™ II Reverse Transcriptase (Invitrogen) as per the manufacturer's instructions, followed by quantitative real-time PCR using Platinum SYBR™ Green qPCR SuperMix-UDG with Rox (Invitrogen).
To understand the basis of this differential response, expression of the 17 identified genes was analyzed in primary melanocytes and BRAFV600E-positive SK-MEL-28 melanoma cells. […] PEA15, a known regulator of BRAF-MEK-ERK signaling (Formstecher et al., 2001, Dev. Cell, 1:239-250), is required for senescence (see FIG. 1F). Thus, the lack of PEA15 induction in IGFBP7-treated SK-MEL-28 cells can explain their failure to undergo senescence.

[3] = system: SK-MEL-28 cells; test: ChIP assays 24 hours following rIGFBP7 treatment; format: cell-based, human
Experimental: Chromatin immunoprecipitation (ChIP) assays were performed using extracts prepared 24 hours following rIGFBP7 treatment. The following antibodies were used: α-BRG1 (de La Serna et al., 2000, Mol. Cell. Biol., 20:2839-51), α-phospho-STAT1 (Upstate), and α-SMARCB1 and α-STAT1 (Santa Cruz). For ChIP experiments on the SMARCB1 promoter, primers spanning a STAT1 binding site located ˜2.4 kb upstream of the transcription start-site were used. For ChIP experiments on the BNIP3L promoter, a series of primer-pairs that covered ˜2 kb of the BNIP3L promoter were used; following addition of rIGFBP7, SMARCB1 and BRG1 were recruited to the BNIP3L promoter near the transcription start-site. ChIP products were analyzed by quantitative real-time PCR using Platinum SYBR™ Green qPCR SuperMix-UDG with Rox (Invitrogen). Calculation of fold differences was done as previously described (Pfaffl, 2001, Nucleic Acids Res., 29:e45).

[4] = system: NCI 60 panel of human cancer cell lines; test: Apoptosis (Annexin V-PE) in the NCI 60 panel of human cancer cell lines; format: cell-based
Experimental: The ability of IGFBP7 to induce apoptosis was assessed in the NCI 60 panel of human cancer cell lines, which were obtained from the National Cancer Institute (NCI). The panel includes cell lines corresponding to breast (MDA-MB-231, HS 578T, BT-549, T47-D, MCF7), ovarian (NCI-ADR-RES, OVCAR-3, OVCAR-5, OVCAR-8, OVCAR-4, SK-OV-3, IGROV1), prostate (DU-145, PC-3), renal (TK-10, CAKI-1, A496, ACHN, RXF-393, 786-O, SN12C, UO-31), non-small cell lung (NCI-H460, HOP-62, A549-ATCC, NCI-H226, EKVX, NCI-H322M, HOP-92, NCI-H522), central nervous system (CNS) (SF-295, SF-268, SF-539, SNB-19, SNB-75, U251), colon (HCT-15, SW-620, COLO205, HT29, HCC-2998, HCT-116, SM-12), melanoma (SK-MEL-28, SK-M2L-2, LOX IMV1, M14, MALM-3M, SK-MEL-5, UACC-257, UACC-62, MDA-MB-435), and hematopoietic (CCRF-CEM, K-562, MOLT-4, SR, RPMI-8226) cancers. These cell lines have been extensively characterized and their mutational status for a number of human cancer genes, including BRAF and RAS (e.g., NRAS, KRAS, or HRAS), is known (see the World Wide Web at discover.nci.nih.gov/cellminer/mutationGeneLoad.do).
rIGFBP7 was expressed and purified as described above. To monitor apoptosis following rIGFBP7 treatment, 5×10^5 cells were treated with rIGFBP7 (10 μg/ml) for 24 hours and stained for Annexin V-PE. The results are shown in FIG. 11A. rIGFBP7 induced apoptosis in 11/11 (100%) of the cell lines that contained a BRAF mutation and 8/13 (61.5%) of the cell lines that contained a RAS mutation. One cell line contained both a BRAF and a RAS mutation, and this cell line was susceptible to rIGFBP7-mediated apoptosis.

For “rIGFBP7: purified recombinant human IGFBP7, C-terminal Flag-tagged, from baculovirus-infected Sf9 insect cells”, the “sensitivity to IGFBP7-mediated growth inhibition” value ([1]; cells with wild type BRAF and RAS) was “relatively insensitive”, the “sensitivity to IGFBP7-mediated growth inhibition” value ([1]; melanoma cell lines with activating BRAF mutation (BRAFV600E)) was “highly sensitive” and the “sensitivity to IGFBP7-mediated growth inhibition” value ([1]; melanoma cell lines with activating RAS mutation (RASQ61R)) was “partially sensitive”. The “upregulation of IGFBP7 and PEA15” value ([2]; SK-MEL-28 cells) was “neither IGFBP7 nor PEA15 were upregulated”, the “induction of the seven BRAFV600E-upregulated genes” value ([2]; melanocytes, IGFBP7 being the exception) was “six of the seven genes were induced” and the BNIP3L upregulation ([2]; primary melanocytes) was “only modestly upregulated”. The “STAT1 recruitment to the SMARCB1 promoter” value ([3]; SK-MEL-28 cells) was “recruited”, the “SMARCB1 and BRG1 recruitment to the BNIP3L promoter” value ([3]; near the transcription start-site) was “recruited” and the “cell lines in which apoptosis was induced” value ([4]; cell lines that contained a BRAF mutation (11/11), 10 μg/ml, 24 hours) was 100%. For the same substance, the “cell lines in which apoptosis was induced” value ([4]; cell lines that contained a RAS mutation (8/13), 10 μg/ml, 24 hours) was 61.5%, the “cell lines susceptible to apoptosis” value ([4]; cell lines without a BRAF or RAS mutation (4/34), 10 μg/ml, 24 hours) was 11.8% and the “susceptibility to rIGFBP7-mediated apoptosis” value ([4]; one cell line with both a BRAF and a RAS mutation) was “susceptible”.
